Results published in patent publication US9757357B2, “Photodynamic therapy or diagnostic agent, using infrared-spectrum light” (Tokyo Institute of Technology, priority 2011, dated 2017).

Tested on: MKN45 cells
Test: ALA-PDT using LNP under 980-nm NIR irradiation (MTT viability)
Assay type: cell-based, Human
Procedure: MKN45 cells were irradiated with NIR in the presence of ALA and LNP to confirm whether cell death occurred.
A medium in a 10-cm dish containing MKN45 cells cultured in a liquid medium (RPMI-1640, FBS(+), and PSN(+)) was aspirated, and the cells were washed with 3 ml of a PBS solution. 1 ml of trypsin was added thereto, and the mixture was incubated (37° C. and 5% CO2) for 5 minutes. The enzymatic reaction of trypsin was terminated by the addition of 5 ml of a fresh medium. A total of 6 ml of the reaction mixture was centrifuged at 1100 rpm for 5 minutes. In this procedure, 10 μl of the sample was mixed with a dye trypan blue, which dyes dead cells. The number of cells was counted using a hemacytometer. After the centrifugation, the supernatant was aspirated, and 2 ml of a fresh medium was added to the cells. The resulting cells were inoculated at a concentration of 100 μl/well (2×10^4 cells/well) to a 96-well plate for ALA concentrations 1000, 100, 10, and 0 μM and a blank. LNP(+) and LNP(−) series were prepared per sample, and these samples were divided into two different plates for NIR(+) and NIR(−). After overnight culture, the medium in each well was discarded. 100 μl of a fresh medium (containing 2.5 mg/ml LNP for the LNP(+) series) and 0.2 M ALA adjusted to the concentrations mentioned above were added to each well of the plates. After incubation for 4 hours, each plate was irradiated from 50 mm above with 980-nm NIR (400 mA) for 3 min/well. After overnight culture, the medium in each well was discarded, and the cells were washed with 100 μl of a PBS solution. 100 μl of a fresh medium and 10 μl of an MTT methanol solution diluted 10-fold with PBS were added to each well. After incubation for 4 hours, 10% SDS was added thereto at a concentration of 100 μl/well, and the mixture was incubated overnight. The absorbance was measured at 570 nm to 660 nm.
ALA-PDT was performed using commercially available LNP in the same way as in Example 4 except that the concentration of MKN45 cells was changed to 2×10^4 cells/well; the ALA concentrations were changed to 2000, 1000, 100, 10, and 0 μM; the culture time after addition of ALA was changed from 4 hours to 24 hours; and the NIR irradiation time was changed to 90 min/well.
ALA-PDT was performed using synthetic LNP in the same way as in Example 5 except that: the concentration of the synthetic LNP prepared in Example 6 was set to 2 mg/mL; and the ALA concentrations were changed to 2000, 1500, 1000, 100, and 0 μM.

`NCC(=O)CCC(=O)O` [ALA, 5-aminolevulinic acid] was tested, and the cell viability (Example 4, FIG. 4, LNP(−),NIR(+), ALA 0-1000 μM, 4 h, 980-nm NIR 3 min/well) was “slight reduction in viability was confirmed”, the cell viability (Example 4, FIG. 4, no NIR irradiation, ALA 0-1000 μM, 4 h, LNP(+) series 2.5 mg/ml and LNP(−) series) was “no change was observed in cell viability” and the cell viability (Example 5, FIG. 5, LNP(−),NIR(+), ALA 0-2000 μM, 24 h, NIR 90 min/well) was “no change was confirmed in cell viability”. For the same compound, the cell viability (Example 5, FIG. 5, no NIR irradiation, ALA 0-2000 μM, 24 h) was “no change was confirmed in cell viability”.
